From BigSolDB 2.1

In the case of `c1cc2c3c(cccc3c1)CC2`, the solubility (mole fraction) (in acetone, 283 K) is reported as 0.0417, the solubility (mole fraction) (in acetone, 288 K) is reported as 0.0491 and the solubility (mole fraction) (in acetone, 293 K) is reported as 0.0587. It also gave a solubility (mole fraction) (in acetone, 298 K) of 0.0692, a solubility (mole fraction) (in acetone, 303 K) of 0.0788 and a solubility (mole fraction) (in acetone, 308.1 K) of 0.0954. The solubility (mole fraction) (in acetone, 313 K) was 0.113, the solubility (mole fraction) (in acetone, 318 K) was 0.136 and the solubility (mole fraction) (in acetone, 323 K) was 0.173. For the same compound, the solubility (mole fraction) (in benzene, 283 K) was 0.118, the solubility (mole fraction) (in benzene, 288 K) was 0.131 and the solubility (mole fraction) (in benzene, 293.2 K) was 0.142. It also gave a solubility (mole fraction) (in benzene, 298 K) of 0.162, a solubility (mole fraction) (in benzene, 303 K) of 0.187 and a solubility (mole fraction) (in benzene, 308.3 K) of 0.215. It also gave a solubility (mole fraction) (in benzene, 313 K) of 0.244, a solubility (mole fraction) (in benzene, 318 K) of 0.277 and a solubility (mole fraction) (in benzene, 323 K) of 0.312. For the same compound, the solubility (mole fraction) (in isobutanol, 283 K) was 0.00926, the solubility (mole fraction) (in isobutanol, 288.1 K) was 0.0128 and the solubility (mole fraction) (in isobutanol, 293.2 K) was 0.0162. It also gave a solubility (mole fraction) (in isobutanol, 298 K) of 0.0205, a solubility (mole fraction) (in isobutanol, 303.3 K) of 0.0253 and a solubility (mole fraction) (in isobutanol, 308 K) of 0.0297. The solubility (mole fraction) (in isobutanol, 313.1 K) was 0.0353, the solubility (mole fraction) (in isobutanol, 318 K) was 0.0435 and the solubility (mole fraction) (in isobutanol, 323 K) was 0.0565. For the same compound, the solubility (mole fraction) (in m-xylene, 283 K) was 0.109, the solubility (mole fraction) (in m-xylene, 288 K) was 0.129 and the solubility (mole fraction) (in m-xylene, 293 K) was 0.143. It also gave a solubility (mole fraction) (in m-xylene, 298 K) of 0.163, a solubility (mole fraction) (in m-xylene, 303.1 K) of 0.188 and a solubility (mole fraction) (in m-xylene, 308.2 K) of 0.216. The solubility (mole fraction) (in m-xylene, 313 K) was 0.245, the solubility (mole fraction) (in m-xylene, 318 K) was 0.281 and the solubility (mole fraction) (in m-xylene, 323 K) was 0.321. It also gave a solubility (mole fraction) (in n-propanol, 283 K) of 0.00879, a solubility (mole fraction) (in n-propanol, 288.1 K) of 0.012 and a solubility (mole fraction) (in n-propanol, 293.2 K) of 0.0144. It also gave a solubility (mole fraction) (in n-propanol, 298 K) of 0.0175, a solubility (mole fraction) (in n-propanol, 303.3 K) of 0.0208 and a solubility (mole fraction) (in n-propanol, 308 K) of 0.0246. For the same compound, the solubility (mole fraction) (in n-propanol, 313.1 K) was 0.0295, the solubility (mole fraction) (in n-propanol, 318 K) was 0.0364 and the solubility (mole fraction) (in n-propanol, 323 K) was 0.0464.
